Test results as given in US20230332232A1, “COMPOSITIONS AND METHODS FOR DIAGNOSING AND TREATING A DYSTONIA” (Duke University, priority 2020, published 2023).

Test system: DYT1 knockin (Tor1a^delGAG/+) murine embryonic fibroblasts (MEFs)
Experiment: microRNA-seq of EVs from DYT1 MEFs treated with drug, compared with non-treated DYT1 MEFs
Format: cell-based, mouse
Description: In addition to proteomic analysis, total RNA-seq and microRNA-seq was performed on RNA isolated in parallel from the EV samples of Cohort 2. As with the proteomic analysis, one biological replicate was prepared from 3 distinct biological clonal cell lines for each genotype. Here, EVs were isolated from conditioned cell culture media by 18 hour ultracentrifugation at 100,000 g. RNA was extracted using the Qiagen miRNeasy Micro Kit (Cat. No. 217084) according to the manufacturer's protocol. Two RNA fractions were extracted from each sample, one enriched in coding and non-coding RNA species>200 nt (“Total RNA” fraction) and one enriched for small RNAs<200 nt (“miRNA” fraction). RNA samples were then submitted to the Duke Sequencing and Genomic Technologies shared resource for further quality control and sequencing. Samples were assessed for concentration and integrity by Qubit and Fragment Analyzer. The miRNA fractions were 4.16 ng/μL-47.57 ng/μL and total RNA fractions were 3.8 ng/μL-43.6 ng/μL. The small RNA library was prepared using the QIAseq miRNA Library Kit (Cat No./ID: 331505) and sequenced on the Illumina NextSeq 500 High-Output platform with 75 bp single-reads. The total RNA library was prepared using the Illumina TruSeq Stranded Total RNA-seq Kit with Ribozero Gold ribosomal RNA reduction and sequenced on the Illumina NovaSeq 6000 S1 platform with 100 bp paired-end reads. Sequencer lane pooling and read depth are attached in the Excel data summary (See “RNA QC” Tab). Data processing and analysis were performed in collaboration with the Duke Genomic Analysis and Bioinformatics shared resource. RNA-seq data was processed using the TrimGalore toolkit (http://www.bioinformatics.babraham.ac.uk/projects/trim_galore), which employs Cutadapt(Martin M. (2011) EMBnet.journal. 17(1):10-12) to trim low quality bases and Illumina sequencing adapters from the 3' end of the reads. Only reads that were 20 nt or longer after trimming were kept for further analysis. Reads were mapped to the mouse genome and transcriptome ([…], et al. (2012) Nucleic Acids Res. 40(Database issue):[…]-97) using the STAR RNA-seq alignment tool (Dobin A, et al. (2013). Bioinformatics. 29(1):15-21). If the reads mapped to a single genomic location, then they were kept for subsequent analysis. Gene counts were compiled using the HTSeq tool (http://www-huber.embl.de/users/anders/HTSeq/). Only genes that had at least 10 reads in any given library were used in subsequent analysis. Normalization and differential expression was carried out using the DESeq26 Bioconductor (Huber W, et al. (2015) Nat Methods. 12(2):115-121) package with the R statistical programming environment (www.r-project.org). […] 694 miRNAs were initially examined with respect to QC, genotype, RTV effects, and ISRIB effects. This subset was the “Full miRNA” subset. FIG. 9A and FIG. 9B show the RTV effect on EV composition in DYT1 cells compared to WT cells for 279 miRNAs, respectively. […] Beginning with the 694 miRNAs in the “Full miRNA” subset, more than 60 molecules were detected in either WT cells or DYT1 cells (WT or Het UMI>60). […] The candidate miRNAs were ranked by the sum of genotype-dependent absolute Z-scores and RTV-induced absolute Z-scores (Abs Z Score Sum (Geno+RTV)). This subset was the “miRNA-Ritonavir Therapeutic Efficacy” subset and contained 201 miRNAs.

[1] = RTV-treated vs non-treated DYT1 (Het) MEF EVs
[2] = mmu-miR-34a-5p, EVs of DYT1 (Het) MEFs
[3] = mmu-miR-34c-5p, EVs of DYT1 (Het) MEFs
[4] = mmu-miR-96-5p, EVs of DYT1 (Het) MEFs
[5] = mmu-miR-125b-1-3p, EVs of DYT1 (Het) MEFs
[6] = mmu-miR-130b-3p, EVs of DYT1 (Het) MEFs
[7] = mmu-miR-140-3p, EVs of DYT1 (Het) MEFs
[8] = mmu-miR-148a-3p, EVs of DYT1 (Het) MEFs
[9] = mmu-miR-182-5p, EVs of DYT1 (Het) MEFs

In the case of `CC(C)c1nc(CN(C)C(=O)N[C@H](C(=O)N[C@@H](Cc2ccccc2)C[C@H](O)[C@H](Cc2ccccc2)NC(=O)OCc2cncs2)C(C)C)cs1` [RTV, Ritonavir], the “direction of modulated EV miRNA expression” value (DYT1 cells, miRNA-Ritonavir Therapeutic Efficacy subset, 201 miRNAs) is reported as “modulated expression in a therapeutic direction”, the “RTV Direction Opposite dE?” value (EV miRNA mmu−let−7c−5p (housekeeping)) is reported as “yes” and the “RTV Direction Opposite dE?” value (EV miRNA mmu−miR−22−3p) is reported as “yes”. For the same compound, the “RTV Direction Opposite dE?” value (EV miRNA mmu−miR−34a−5p) was “yes”, the “RTV Direction Opposite dE?” value (EV miRNA mmu−miR−96−5p) was “yes” and the “RTV Direction Opposite dE?” value (EV miRNA mmu−miR−135a−5p) was “yes”. The “RTV Direction Opposite dE?” value (EV miRNA mmu−miR−182−5p) was “yes”, the “RTV Direction Opposite dE?” value (EV miRNA mmu−miR−183−5p) was “yes” and the “RTV Direction Opposite dE?” value (EV miRNA mmu−miR−199a−3p) was “yes”. For the same compound, the “RTV Direction Opposite dE?” value (EV miRNA mmu−miR−296−3p) was “yes”, the “RTV Direction Opposite dE?” value (EV miRNA mmu−miR−542−5p) was “yes” and the “mmu-miR-147-5p: RTVvHet Z Score” value [1] was −0.07. For the same compound, the “mmu-miR-181a-1-3p: RTVvHet Z Score” value [1] was 0.08, the “mmu-miR-331-5p: RTVvHet Z Score” value [1] was 0.00 and the “mmu-miR-668-3p: RTVvHet Z Score” value [1] was 0.31. For the same compound, the “mmu-miR-1930-5p: RTVvHet Z Score” value [1] was 0.00, the “mmu-miR-1943-5p: RTVvHet Z Score” value [1] was 0.23 and the “mmu-miR-1955-5p: RTVvHet Z Score” value [1] was 0.00. For the same compound, the “mmu-miR-3072-5p: RTVvHet Z Score” value [1] was −0.38, the “mmu-miR-3076-3p: RTVvHet Z Score” value [1] was 0.00 and the “mmu-miR-3088-3p: RTVvHet Z Score” value [1] was 0.18. The “mmu-miR-6936-3p: RTVvHet Z Score” value [1] was 0.00, the “mmu-miR-7224-3p: RTVvHet Z Score” value [1] was −0.17 and the “mmu-miR-467d-3p: RTVvHet Z Score” value [1] was −0.11. The “RTVvHet Z Score” value (mmu-let-7a-1-3p) was 0.62, the “RTVvHet Z Score” value (mmu-let-7c-2-3p) was 0.62 and the “RTV Direction Opposite dE?” value (mmu-let-7f-5p, EVs of DYT1 (Het) MEFs) was “yes”. The “RTVvHet Z Score” value (mmu-let-7g-5p) was 0.50, the “RTVvHet Z Score” value (mmu-let-7i-3p) was 1.15 and the “RTV Direction Opposite dE?” value (mmu-let-7i-5p, EVs of DYT1 (Het) MEFs) was “yes”. For the same compound, the “RTV Direction Opposite dE?” value (mmu-miR-30e-5p, EVs of DYT1 (Het) MEFs) was “yes”, the “RTVvHet Z Score” value (mmu-miR-30e-3p) was 0.49 and the “RTVvHet Z Score” value (mmu-miR-15a-5p) was 0.22. For the same compound, the “RTVvHet Z Score” value (mmu-miR-16-5p) was 0.21, the “RTVvHet Z Score” value (mmu-miR-17-3p) was 0.02 and the “RTV Direction Opposite dE?” value (mmu-miR-19b-3p, EVs of DYT1 (Het) MEFs) was “yes”. For the same compound, the “RTVvHet Z Score” value (mmu-miR-22-3p) was 1.26, the “RTV Direction Opposite dE?” value (mmu-miR-22-3p, EVs of DYT1 (Het) MEFs) was “yes” and the “RTVvHet Z Score” value (mmu-miR-23a-3p) was 0.46. For the same compound, the “RTVvHet Z Score” value (mmu-miR-25-3p) was 0.71, the “RTV Direction Opposite dE?” value (mmu-miR-26b-Sp, EVs of DYT1 (Het) MEFs) was “yes” and the “RTVvHet Z Score” value (mmu-miR-29b-3p) was 0.53. The “RTVvHet Z Score” value (mmu-miR-29c-3p) was 1.17, the “RTVvHet Z Score” value (mmu-miR-30a-5p) was 0.97 and the “RTV Direction Opposite dE?” value (mmu-miR-30a-5p, EVs of DYT1 (Het) MEFs) was “yes”. The “RTVvHet Z Score” value (mmu-miR-30b-5p) was 1.23, the “RTVvHet Z Score” value (mmu-miR-30c-5p (1st line so named)) was 1.38 and the “RTVvHet Z Score” value (mmu-miR-30c-5p (2nd line so named)) was 1.07. The “RTV Direction Opposite dE?” value (mmu-miR-30c-5p, EVs of DYT1 (Het) MEFs) was “yes”, the “RTVvHet Z Score” value (mmu-miR-31-3p) was 0.83 and the “RTVvHet Z Score” value (mmu-miR-31-5p) was 1.41. The “RTV Direction Opposite dE?” value (mmu-miR-31-5p, EVs of DYT1 (Het) MEFs) was “yes”, the “RTVvHet Z Score” value (mmu-miR-32-5p) was 0.75 and the “RTVvHet Z Score” value (mmu-miR-33-5p) was 1.52. The “RTVvHet Z Score” value (mmu-miR-34a-5p) was 1.38, the “Abs Z Score Sum (Geno + RTV)” value [2] was 3.80 and the “RTV Direction Opposite dE?” value [2] was “yes”. The “RTVvHet Z Score” value (mmu-miR-34b-5p) was 1.55, the “RTVvHet Z Score” value (mmu-miR-34c-3p) was 0.78 and the “RTVvHet Z Score” value (mmu-miR-34c-5p) was 1.33. For the same compound, the “Abs Z Score Sum (Geno + RTV)” value [3] was 3.36, the “RTV Direction Opposite dE?” value [3] was “yes” and the “RTV Direction Opposite dE?” value (mmu-miR-93-5p, EVs of DYT1 (Het) MEFs) was “yes”. For the same compound, the “RTVvHet Z Score” value (mmu-miR-96-5p) was 3.10, the “Abs Z Score Sum (Geno + RTV)” value [4] was 5.01 and the “RTV Direction Opposite dE?” value [4] was “yes”. The “RTVvHet Z Score” value (mmu-miR-98-5p) was 0.42, the “RTVvHet Z Score” value (mmu-miR-99a-5p) was 0.73 and the “RTVvHet Z Score” value (mmu-miR-101b-3p) was 0.52. The “RTV Direction Opposite dE?” value (mmu-miR-103-3p, EVs of DYT1 (Het) MEFs) was “yes”, the “RTVvHet Z Score” value (mmu-miR-106b-3p) was 0.15 and the “RTVvHet Z Score” value (mmu-miR-106b-5p) was 0.54. For the same compound, the “RTVvHet Z Score” value (mmu-miR-124-3p) was −1.59, the “RTVvHet Z Score” value (mmu-miR-125b-1-3p) was 1.02 and the “Abs Z Score Sum (Geno + RTV)” value [5] was 3.85. The “RTV Direction Opposite dE?” value [5] was “yes”, the “RTVvHet Z Score” value (mmu-miR-130b-3p) was 1.50 and the “Abs Z Score Sum (Geno + RTV)” value [6] was 3.92. The “RTV Direction Opposite dE?” value [6] was “yes”, the “RTV Direction Opposite dE?” value (mmu-miR-135a-5p, EVs of DYT1 (Het) MEFs) was “yes” and the “RTVvHet Z Score” value (mmu-miR-136-3p) was 1.52. The “RTVvHet Z Score” value (mmu-miR-140-3p) was 2.54, the “Abs Z Score Sum (Geno + RTV)” value [7] was 4.39 and the “RTV Direction Opposite dE?” value [7] was “yes”. For the same compound, the “RTVvHet Z Score” value (mmu-miR-146a-5p) was 0.10, the “RTVvHet Z Score” value (mmu-miR-148a-3p) was 1.86 and the “Abs Z Score Sum (Geno + RTV)” value [8] was 3.69. The “RTV Direction Opposite dE?” value [8] was “yes”, the “RTVvHet Z Score” value (mmu-miR-148b-3p) was 0.58 and the “RTVvHet Z Score” value (mmu-miR-149-5p) was 0.33. The “RTVvHet Z Score” value (mmu-miR-151-5p) was 0.32, the “RTVvHet Z Score” value (mmu-miR-152-3p) was 0.76 and the “RTVvHet Z Score” value (mmu-miR-181a-5p) was 0.31. The “RTVvHet Z Score” value (mmu-miR-181b-5p) was 0.54, the “RTVvHet Z Score” value (mmu-miR-181c-5p) was 0.88 and the “RTVvHet Z Score” value (mmu-miR-182-5p) was 5.33. The “Abs Z Score Sum (Geno + RTV)” value [9] was 7.27 and the “RTV Direction Opposite dE?” value [9] was “yes”.
